Experimental data taken from US11827616B2, “Heterocyclic compounds as pesticides” (Discovery Purchaser Corporation, priority 2018, dated 2023).
Read-outs that look alike come from different tables or passages of the source.

Columns and labels:
Type in all cases: in vivo
[1] = test system: Spodoptera frugiperda; test: Spodoptera frugiperda spray test; conditions: for pest or weed control at 500 g/ha: Spodoptera frugiperda, 168 h, read-out: efficacy
Description: Spodoptera frugiperda—Spray Test
(§1) Solvent: 78.0 parts by weight of acetone • • 1.5 parts by weight of dimethylformamide
(§2) Emulsifier: alkylaryl polyglycol ether
(§3) To produce a suitable active compound formulation, 1 part by weight of active compound is dissolved with the specified parts by weight of solvent and made up to the desired concentration with water containing an emulsifier concentration of 1000 ppm. To produce further test concentrations, the formulation is diluted with emulsifier-containing water.
Leaf discs of maize (Zea mays) are sprayed with an active compound formulation of the desired concentration and, after drying, populated with caterpillars of the fall armyworm (Spodoptera frugiperda).
After 7 days, the efficacy in % is determined. 100% means that all the caterpillars have been killed; 0% means that no caterpillar has been killed.

[2] = test system: Rhipicephalus sanguineus; test: Rhipicephalus sanguineus in vitro contact test with adult brown dog ticks; conditions: application rate 5 μg/cm^2 (=500 g/ha); after 48 h
Description: Rhipicephalus sanguineus—In Vitro Contact Tests with Adult Brown Dog Ticks
(§4) For the coating of the test tubes, 9 mg of active compound are first dissolved in 1 ml of acetone p.a. and then diluted to the desired concentration with acetone p.a. 250 μl of the solution are distributed homogeneously on the inner walls and the base of a 25 ml glass tube by turning and rocking on an orbital shaker (rocking rotation at 30 rpm for 2 h). With 900 ppm of active compound solution and internal surface area 44.7 cm^2, given homogeneous distribution, an area-based dose of 5 μg/cm^2 is achieved.
After the solvent has evaporated off, the tubes are populated with 5-10 adult dog ticks (Rhipicephalus sanguineus), sealed with a perforated plastic lid and incubated in a horizontal position in the dark at room temperature and ambient humidity. After 48 h, efficacy is determined. To this end, the ticks are knocked to the base of the tube and incubated on a hotplate at 45-50° C. for not more than 5 min. Ticks which remain motionless on the base or move in such an uncoordinated manner that they are unable to deliberately avoid the heat by climbing upwards are considered to be dead or moribund.
An efficacy of 100% means that all the ticks were dead or moribund. 0% efficacy means that none of the ticks were harmed.

[3] = test system: cattle ticks (Boophilus microplus) Parkhurst strain, SP-resistant; test: Boophilus microplus dip test; conditions: application rate 100 ppm, after 7 days
Description: Boophilus microplus—Dip Test
Test animals: cattle ticks (Boophilus microplus) Parkhurst strain, SP-resistant
(§5) Solvent: dimethyl sulfoxide
10 mg of active compound are dissolved in 0.5 ml of dimethyl sulfoxide. To produce a suitable formulation, the active compound solution is diluted with water to the concentration desired in each case.
This active compound formulation is pipetted into tubes. 8-10 engorged adult female cattle ticks (Boophilus microplus) are transferred into a further tube with holes. The tube is immersed into the active compound formulation, and all the ticks are completely wetted. After the liquid has run out, the ticks are transferred on filter disks into plastic dishes and stored in a climate-controlled room.
(§6) Efficacy is assessed after 7 days by laying of fertile eggs. Eggs which are not visibly fertile are stored in a climate-controlled cabinet until the larvae hatch after about 42 days. An efficacy of 100% means that none of the ticks has laid any fertile eggs; 0% means that all the eggs are fertile.

[4] = test system: Boophilus microplus; test: Boophilus microplus injection test; conditions: for pest or weed control at 0.02 mg: Rhipicephalus microplus, 168 h
Description: Boophilus microplus—Injection Test
as §5
To produce a suitable active compound formulation, 10 mg of active compound are mixed with 0.5 ml of solvent and the concentrate is diluted to the desired concentration with solvent.
1 μl of the active compound solution is injected into the abdomen of 5 engorged adult female cattle ticks (Boophilus microplus). The animals are transferred into dishes and kept in a climate-controlled room.
as §6

[5] = test system: Ctenocephalides felis; test: Ctenocephalides felis in vitro contact test with adult cat fleas; conditions: application rate 5 μg/cm^2 (=500 g/ha); after 48 h
Description: Ctenocephalides felis—In Vitro Contact Tests with Adult Cat Fleas
as §4
After the solvent has evaporated off, the tubes are populated with 5-10 adult cat fleas (Ctenocephalides felis), sealed with a perforated plastic lid and incubated in a horizontal position at room temperature and ambient humidity. After 48 h, efficacy is determined. To this end, the tubes are stood upright and the fleas are knocked to the base of the tube. Fleas which remain motionless at the base or move in an uncoordinated manner are considered to be dead or moribund.
100% efficacy means that all the fleas were dead or moribund. 0% efficacy means that no fleas were harmed.

[6] = test system: Anopheles gambiae strain RSPH (homozygot kdr); test: Anopheles test (ANPHGB surface treatment); conditions: read-out: efficacy (mortality in %)
Description: Anopheles Test (ANPHGB Surface Treatment)
(§7) Solvent: acetone+2000 ppm rapeseed oil methyl ester (RME)
(§8) To produce an appropriate active compound formulation, the active compound is dissolved in the solvent (2 mg/ml). The active compound formulation is pipetted onto a glazed tile and, after it has dried off, adult mosquitoes of the species Anopheles gambiae strain RSPH (homozygot kdr) are placed onto the treated tile. The exposure time is 30 minutes.
(§9) 24 hours after contact with the treated surface, mortality in % is determined. 100% means that all mosquitoes have been killed; 0% means that none of the mosquitoes have been killed.

[7] = test system: Lucilia cuprina; test: Lucilia cuprina test; conditions: application rate 100 ppm; L1 larvae; after 2 days
Description: as §5
To produce a suitable active compound formulation, 10 mg of active compound are mixed with 0.5 ml of dimethyl sulfoxide, and the concentrate is diluted with water to the desired concentration.
About 20 L1 larvae of the Australian sheep blowfly (Lucilia cuprina) are transferred into a test vessel containing minced horsemeat and the active compound formulation of the desired concentration.
After 2 days, the kill in % is determined. 100% means that all the larvae have been killed; 0% means that no larvae have been killed.

[8] = test system: Aedes aegypti strain MONHEIM; test: Aedes test (AEDSAE surface treatment); conditions: read-out: efficacy (mortality in %)
Description: Aedes Test (AEDSAE Surface Treatment)
as §7
as §8, with “Aedes aegypti” for “Anopheles gambiae”, “MONHEIM” for “RSPH (homozygot kdr)”, “minutes. 24 hours after contact with the treated surface, mortality in % is determined. 100% means that all mosquitoes have been killed; 0% means that none of the mosquitoes have been killed.” for “minutes.”

[9] = test system: Anopheles funestus strain FUMOZ-R; test: Anopheles test (ANPHFU surface treatment); conditions: read-out: efficacy (mortality in %)
Description: Anopheles Test (ANPHFU Surface Treatment)
as §7
as §8, with “funestus” for “gambiae”, “FUMOZ-R (Hunt et al., Med Vet Entomol. 2005 Sep.; 19 (3):271-5)” for “RSPH (homozygot kdr)”
as §9

[10] = test system: Phaedon cochleariae; test: Phaedon cochleariae spray test; conditions: for pest or weed control at 500 g/ha: Phaedon cochleariae, 168 h, read-out: efficacy
Description: Phaedon cochleariae—Spray Test
as §1, §2, §3
Discs of Chinese cabbage leaves (Brassica pekinensis) are sprayed with an active compound formulation of the desired concentration and, after drying, populated with larvae of the mustard beetle (Phaedon cochleariae).
After 7 days, the efficacy in % is determined. 100% means that all the beetle larvae have been killed; 0% means that no beetle larvae have been killed.

[11] = test system: Ctenocephalides felis; test: Ctenocephalides felis oral test; conditions: application rate 100 ppm in citrated cattle blood; after 2 days
Description: Ctenocephalides felis—Oral Test
as §5
To produce a suitable active compound formulation, 10 mg of active compound are mixed with 0.5 ml of dimethyl sulfoxide. Dilution with citrated cattle blood gives the desired concentration.
About 20 unfed adult cat fleas (Ctenocephalides felis) are placed into a chamber which is closed at the top and bottom with gauze. A metal cylinder whose bottom end is closed with parafilm is placed onto the chamber. The cylinder contains the blood/active compound formulation, which can be imbibed by the fleas through the parafilm membrane.
After 2 days, the kill in % is determined. 100% means that all of the fleas have been killed; 0% means that none of the fleas have been killed.

[12] = test system: Tetranychus urticae; test: Tetranychus urticae spray test, OP-resistant; conditions: application rate 500 g/ha; after 6 days
Description: Tetranychus urticae—Spray Test, OP-Resistant
Solvent: 78.0 Parts by Weight of Acetone • • 1.5 parts by weight of dimethylformamide
as §2, §3
Discs of bean leaves (Phaseolus vulgaris) infested with all stages of the greenhouse red spider mite (Tetranychus urticae) are sprayed with an active compound formulation of the desired concentration.
After 6 days, the efficacy in % is determined. 100% means that all the spider mites have been killed; 0% means that no spider mites have been killed.

[13] = application rate 500 g/ha, after 7 days
[14] = application rate 20 μg/animal, after 7 days
[15] = read-out: efficacy (laying of fertile eggs), application rate 20 μg/animal, after 7 days
[16] = application rate 20 mg/m^2, exposure 30 minutes, 24 hours after contact

SMILES	efficacy [1, 13] [%]	efficacy (ticks dead or moribund) [2] [%]	efficacy (laying of fertile eggs) [3] [%]	efficacy (laying of fertile eggs) [4, 14] [%]	efficacy (fleas dead or moribund) [5] [%]	mortality at 100 mg/m2 [6] [%]	pest or weed control at 500 g/ha [1] [%]	efficacy (kill in %) [7] [%]	mortality at 20 mg/m2 [8] [%]	mortality at 100 mg/m2 [8] [%]	pest or weed control at 0.02 mg [4, 15] [%]	mortality at 100 mg/m2 [9] [%]	mortality at 20 mg/m2 [6] [%]	mortality at 20 mg/m2 [9] [%]	pest or weed control at 500 g/ha [10] [%]	efficacy [12] [%]	also measured
COc1cc(OCc2ncc(OCCN(C)OC)cc2F)ccc1Br [Example 86]	83	100	100	100	100	–	–	–	–	–	–	–	–	–	–	–	–
COc1cc(OCCN(C)OC)cnc1COc1ccc2oc3ccccc3c2c1 [Example 90, 2-({6-[(dibenzo[b,d]furan-2-yloxy)methyl]-5-methoxypyridin-3-yl}oxy)-N-methoxy-N-methylethanamine]	–	–	–	–	–	80 to 100	83	80	80 to 100	80 to 100	100	80 to 100	–	–	–	–	–
CON(C)CCOc1ccc(COc2cccc3c(Cl)c(Cl)ccc23)nc1 [Example 16]	83	100	95	100	100	–	–	100	–	–	–	–	–	–	–	–	efficacy [10, 13]: 83%
CON(C)CCOc1ccc(COc2ccc(Cl)c3ccccc23)c(F)n1 [Example 3, 2-[(5-{[(4-chloro-1-naphthyl)oxy]methyl}-6-fluoropyridin-2-yl)oxy]-N-methoxy-N-methylethanamine]	–	–	–	–	–	80 to 100	–	–	–	80 to 100	–	80 to 100	80 to 100	80 to 100	–	–	–
CON(C)CCOc1cnc(COc2ccc(F)c(-c3ccccc3)c2)c(F)c1 [Example 71, 2-[(5-fluoro-6-{[(6-fluorobiphenyl-3-yl)oxy]methyl}pyridin-3-yl)oxy]-N-methoxy-N-methylethanamine]	–	100	–	–	100	–	–	100	–	–	–	–	–	–	–	–	mortality at 20 mg/m2 [6, 16]: 80 to 100%; pest or weed control at 500 g/ha [10, 13]: 83%; pest or weed control at 500 g/ha [1, 13]: 100%; mortality at 20 mg/m2 [8, 16]: 80 to 100%; pest or weed control at 0.02 mg ([4]; application rate 20 μg/animal, after 7 days, read-out: efficacy (laying of fertile eggs)): 100%; mortality at 20 mg/m2 [9, 16]: 80 to 100%
CON(C)CCOc1ccc(COc2ccc(Cl)c3ccccc23)cn1 [Example 2, 2-[(5-{[(4-chloro-1-naphthyl)oxy]methyl}pyridin-2-yl)oxy]-N-methoxy-N-methylethanamine]	–	100	–	–	100	80 to 100	100	100	80 to 100	80 to 100	100	80 to 100	80 to 100	80 to 100	100	90	efficacy (kill in %) [11]: 80%
COc1cc(OCc2ncc(OCCN(C)OC)cc2F)ccc1Cl [Example 58]	100	–	95	100	–	–	–	–	–	–	–	–	–	–	–	100	efficacy [10, 13]: 100%
CCOc1nc(COc2cccc3c(Cl)c(Cl)ccc23)ccc1OCCN(C)OC [Example 97, 2-[(6-{[(5,6-dichloro-1-naphthyl)oxy]methyl}-2-ethoxypyridin-3-yl)oxy]-N-methoxy-N-methylethanamine]	–	–	–	–	–	–	–	–	–	–	–	–	–	–	–	–	mortality at 20 mg/m2 [8, 16]: 80 to 100%
N#CCN1CCC(Oc2ccc(COc3ccc(Cl)c4ccccc34)cn2)C1 (stereo not drawn) [Example 5, {3-[(5-{[(4-chloro-1-naphthyl)oxy]methyl}pyridin-2-yl)oxy]pyrrolidin-1-yl}acetonitrile]	–	–	–	–	–	80 to 100	83	100	–	–	100	–	80 to 100	80 to 100	100	–	–
CON(C)CCOc1cnc(COc2ccc3oc4ccccc4c3c2)c(C)c1 [Example 30, 2-({6-[(dibenzo[b,d]furan-2-yloxy)methyl]-5-methylpyridin-3-yl}oxy)-N-methoxy-N-methylethanamine]	–	–	–	–	–	–	–	–	80 to 100	–	100	–	80 to 100	80 to 100	83	100	–
